Laboratory results: US10448639B2, “Fungicidal pyrazoles” (FMC CORPORATION, priority 2009, dated 2019)

How the values were obtained:
[1] = test system: Puccinia recondita f. sp. tritici; test: Test I: wheat leaf rust, preventive spray on wheat seedlings, visual disease rating
Botrytis cinerea = test: Test B: tomato Botrytis, preventive spray on tomato seedlings, visual disease rating
Septoria tritici = test: Test G: wheat leaf blotch, preventive spray on wheat seedlings, visual disease rating
Alternaria solani = test: Test C: tomato early blight, preventive spray on tomato seedlings, visual disease rating
[2] = test system: Erysiphe graminis f sp. tritici; test: Test J: wheat powdery mildew, preventive spray on wheat seedlings, visual disease rating
Septoria nodorum = test: Test F: Septoria glume blotch, preventive spray on wheat seedlings, visual disease rating
Source text: General protocol for preparing test suspensions for Tests A-J: the test compounds were first dissolved in acetone in an amount equal to 3% of the final volume and then suspended at the desired concentration (in ppm) in acetone and purified water (50/50 mix by volume) containing 250 ppm of the surfactant Trem® 014 (polyhydric alcohol esters). The resulting test suspensions were then used in Tests A-J. Spraying a 200 ppm test suspension to the point of run-off on the test plants was the equivalent of a rate of 500 g/ha. Unless otherwise indicated, the rating values indicate a 200 ppm test suspension was used. (An asterisk “*” next to the rating value indicates a 40 ppm test suspension was used.)
The test suspension was sprayed to the point of run-off on wheat seedlings. The following day the seedlings were inoculated with a spore suspension of Septoria nodorum (the causal agent of Septoria glume blotch) and incubated in a saturated atmosphere at 24° C. for 48 h, and then moved to a growth chamber at 20° C. for 6 days, after which time visual disease ratings were made.

[3] = test system: Puccinia recondita f. sp. tritici; test: Test H: wheat leaf rust, curative spray on inoculated wheat seedlings, visual disease rating
[4] = wheat leaf rust, preventive, 100 = 100% disease control, 0 = no control relative to controls
[5] = tomato Botrytis, 100 = 100% disease control, 0 = no control relative to controls
[6] = wheat leaf blotch, 100 = 100% disease control, 0 = no control relative to controls
[7] = tomato early blight, 100 = 100% disease control, 0 = no control relative to controls
[8] = wheat powdery mildew, 100 = 100% disease control, 0 = no control relative to controls
[9] = Septoria glume blotch, 100 = 100% disease control, 0 = no control relative to controls
[10] = wheat leaf rust, curative, 100 = 100% disease control, 0 = no control relative to controls
[11] = wheat leaf rust, preventive spray, 100 = 100% disease control, 0 = no control
[12] = tomato Botrytis, preventive spray, 100 = 100% disease control, 0 = no control
[13] = wheat leaf blotch, preventive spray, 100 = 100% disease control, 0 = no control
[14] = tomato early blight, preventive spray, 100 = 100% disease control, 0 = no control
[15] = wheat powdery mildew, preventive spray, 100 = 100% disease control, 0 = no control
[16] = Septoria glume blotch on wheat, preventive spray, 100 = 100% disease control, 0 = no control
[17] = wheat leaf rust, curative spray, 100 = 100% disease control, 0 = no control

Row | SMILES | Test I rating (% disease control) [1, 4] [%] | Test B rating (% disease control) (Botrytis cinerea; [5]) [%] | Test G rating (% disease control) (Septoria tritici; [6]) [%] | Test C rating (% disease control) (Alternaria solani; [7]) [%] | Test J rating (% disease control) [2, 8] [%] | Test F rating (% disease control) (Septoria nodorum; [9]) [%] | Test H rating (% disease control) [3, 10] [%] | Test I rating (% disease control) [1, 11] [%] | Test B rating (% disease control) (Botrytis cinerea; [12]) [%] | Test G rating (% disease control) (Septoria tritici; [13]) [%] | Test C rating (% disease control) (Alternaria solani; [14]) [%] | Test J rating (% disease control) [2, 15] [%] | Test F rating (% disease control) (Septoria nodorum; [16]) [%] | Test H rating (% disease control) [3, 17] [%] | also measured
1 | COc1cc(F)c(Nc2c(-c3c(F)cccc3Cl)c(C)nn2C)c(F)c1 [compound 190] | 100 | 99 | 100 | 99 | 99 | 80 | 94 |  |  |  |  |  |  |  | 
2 | Cc1nn(C)c(Nc2ccc(F)cc2)c1-c1cccc(F)c1F [compound 205] | 91 | 100 | 99 | 17 | 100 | 0 | 0 |  |  |  |  |  |  |  | 
3 | COc1ccc(Nc2c(-c3ccc(F)cc3F)c(C)nn2C)c(Cl)c1 [compound 242] | 91 | 99 | 100 | 37 | 100 | 0 | 0 |  |  |  |  |  |  |  | 
4 | COc1cc(F)c(-c2c(C)nn(C)c2Nc2c(F)cc(C#N)cc2F)c(F)c1 [compound 82] |  |  |  |  |  |  |  | 68 | 100 | 99 | 100 | 13 | 40 | 0 | 
5 | COc1cc(OC)cc(-c2c(C)nn(C)c2Oc2ccc(Cl)cc2)c1 [compound 16] |  |  |  |  |  |  |  | 28 | 60 | 47 | 0 | 0 | 0 | 48 | 
6 | Cc1nn(C)c(Nc2c(F)cc(F)cc2F)c1-c1c(F)cc(C#N)cc1F [compound 133] |  |  |  |  |  |  |  | 100 | 100 | 99 | 100 | 94 | 60 | 0 | 
7 | Cc1nn(C)c(Nc2ccc(F)cc2Cl)c1-c1ccc(C#N)cc1Cl [compound 338] |  |  |  |  |  |  |  |  |  |  |  |  |  |  | Test I disease control rating ([1]; wheat leaf rust, sprayed the day before inoculation, 100 = 100% disease control, 0 = no disease control relative to controls): 100%; Test B disease control rating (Botrytis cinerea; tomato Botrytis, 100 = 100% disease control, 0 = no disease control relative to controls): 100%; Test G disease control rating (Septoria tritici; wheat leaf blotch, sprayed the day before inoculation, 100 = 100% disease control, 0 = no disease control relative to controls): 100%; Test C disease control rating (Alternaria solani; tomato early blight, 100 = 100% disease control, 0 = no disease control relative to controls): 37%; Test J disease control rating ([2]; wheat powdery mildew, sprayed the day before inoculation, 100 = 100% disease control, 0 = no disease control relative to controls): 99%; Test F disease control rating (Septoria nodorum; Septoria glume blotch on wheat, 100 = 100% disease control, 0 = no disease control relative to controls): 40%; Test H disease control rating ([3]; wheat leaf rust, sprayed after inoculation, 100 = 100% disease control, 0 = no disease control relative to controls): 8%
8 | COc1ccc(Nc2c(-c3c(F)cc(C#N)cc3F)c(C)nn2C)cc1 [compound 126] |  |  |  |  |  |  |  | 94 | 99 | 100 | 96 | 0 | 60 | 0 | 
9 | Cc1nn(C)c(Nc2c(F)cc(F)cc2F)c1-c1ccccc1C(F)(F)F [compound 239] | 68 | 99 | 67 | 95 | 100 | 0 | 0 |  |  |  |  |  |  |  | 
10 | Cc1nn(C)c(Oc2c(Cl)cc(C(F)(F)F)cc2Cl)c1-c1c(F)cc(F)cc1F [compound 30] |  |  |  |  |  |  |  | 79 | 7 | 41 | 0 | 0 | 0 | 0 | 
11 | Cc1nn(C)c(Nc2ccc(C#N)cc2F)c1-c1c(F)cc(F)cc1F [compound 120] |  |  |  |  |  |  |  | 99 | 100 | 100 | 99 | 99 | 94 | 0 | 
12 | Cc1nn(C)c(Oc2c(F)cc(C#N)cc2F)c1-c1cccc(Cl)c1Cl [compound 273] | 27 | 0 | 72 | 0 | 43 | 0 | 0 |  |  |  |  |  |  |  | 
13 | COc1ccc(Cl)c(-c2c(C)nn(C)c2Oc2c(F)cc(C#N)cc2F)c1 [compound 277] | 96 | 100 | 100 | 0 | 98 | 0 | 0 |  |  |  |  |  |  |  | 
14 | Cc1nn(C)c(Nc2ccc(F)c(C#N)c2)c1-c1ccc(F)cc1Cl [compound 234] | 92 | 99 | 99 | 0 | 84 | 0 | 0 |  |  |  |  |  |  |  | 
15 | Cc1nn(C)c(Nc2c(F)cc(F)cc2F)c1-c1ccccc1Br [compound 248] | 99 | 99 | 100 | 26 | 100 | 73 | 0 |  |  |  |  |  |  |  | 
16 | Cc1nn(C)c(Oc2c(F)cc(C#N)cc2F)c1-c1ccc(Cl)cc1 [compound 44] |  |  |  |  |  |  |  | 9 | 82 | 96 | 0 | 0 | 0 | 7 | 
17 | COc1ccc(Nc2c(-c3c(F)cc(F)cc3F)c(C)nn2C)cn1 [compound 94] |  |  |  |  |  |  |  | 9 | 99 | 98 | 70 | 0 | 29 | 0 | 
18 | Cc1nn(C)c(Nc2ccc(F)cc2F)c1-c1ccccc1F [compound 181] | 60 | 94 | 100 | 44 | 98 | 0 | 0 |  |  |  |  |  |  |  | 
19 | Cc1nn(C)c(Nc2c(F)ccc(F)c2F)c1-c1ccc(F)cc1Cl [compound 171] | 99 | 100 | 97 | 97 | 100 | 0 | 68 |  |  |  |  |  |  |  | 
20 | COc1cc(F)c(Nc2c(-c3ccc(F)c(F)c3)c(C)nn2C)c(F)c1 [Compound 36, N-(2,6-difluoro-4-methoxyphenyl)-4-(3,4-difluorophenyl)-1,3-dimethyl-1H-pyrazol-5-amine] |  |  |  |  |  |  |  |  |  |  |  |  |  |  | pest or weed control at 200 µg/mL ([1]; 192 h, read-out: Test I rating (% disease control)): 96%; pest or weed control at 200 µg/mL (Botrytis cinerea; Botrytis cinerea, in Solanum lycopersicum, 120 h, read-out: Test B rating (% disease control)): 100%; pest or weed control at 200 µg/mL (Septoria tritici; Zymoseptoria tritici, in Triticum aestivum, 504 h, read-out: Test G rating (% disease control)): 96%; pest or weed control at 200 µg/mL (Alternaria solani; Alternaria solani, in Solanum lycopersicum, 168 h, read-out: Test C rating (% disease control)): 0%; pest or weed control at 200 µg/mL ([2]; Blumeria graminis, in Triticum aestivum, 192 h, read-out: Test J rating (% disease control)): 98%; pest or weed control at 200 µg/mL (Septoria nodorum; Parastagonospora nodorum, in Triticum aestivum, 192 h, read-out: Test F rating (% disease control)): 0%; pest or weed control at 200 µg/mL ([3]; 144 h, read-out: Test H rating (% disease control)): 0%
21 | COc1ccc(-c2c(C)nn(C)c2Nc2cc(F)ccc2F)c(Cl)c1 [compound 176] | 68 | 100 | 96 | 71 | 100 | 0 | 0 |  |  |  |  |  |  |  | 
